Experimental data reported in patent publication US20240391870A1 (Arcturus Therapeutics, Inc., priority 2023, published 2024).
Where two headings read alike, the source gives them in different places.

Columns and labels:
[1] = Measured pKa in the indicated formulation
Method: Measured pKa values were determined based on the pH measured in the indicated formulation (i.e., EPO or FVII formulation).

[2] = Lipid nanoparticle size, PDI and encapsulation; type: physicochemical; details: Table 3
hEPO = hEPO mRNA expression evaluation (hEPO-LNPs); type: in vivo, Balb/c mice; details: Table 3; 0.3 mg/kg
[3] = Lipid nanoparticle size, PDI and encapsulation; type: physicochemical; details: Table 3; for Size (nm): lipid nanoparticle; for EE %: lipid nanoparticle encapsulation
Method: In the context of nucleic acids, full encapsulation may be determined by performing a membrane-impermeable fluorescent dye exclusion assay, which uses a dye that has enhanced fluorescence when associated with nucleic acid. Encapsulation is determined by adding the dye to a lipid formulation, measuring the resulting fluorescence, and comparing it to the fluorescence observed upon addition of a small amount of nonionic detergent. Detergent-mediated disruption of the lipid layer releases the encapsulated nucleic acid, allowing it to interact with the membrane-impermeable dye. Nucleic acid encapsulation may be calculated as E=(I0−I)/I0, where I and I0 refer to the fluorescence intensities before and after the addition of detergent.

[4] = In vivo biodegradability assay (lipid in liver); details: Table 3; liver tissue, 0.3 mg/kg dose
factor VII = assay: Factor VII knock down evaluation (LNP with FVII siRNA); type: in vivo, Balb/C mice; details: Table 3; 0.03 mg/kg
Procedure, shortened: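 Female Balb/C mice, 7–8 weeks old, received FVII siRNA lipid nanoparticles intravenously at 0.03 or 0.01 mg/kg. Plasma was collected 48 h later and FVII protein measured by chromogenic assay at 405 nm against a control plasma calibration curve. Levels are relative to saline-treated controls.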

Row | SMILES | pKa [1] | PDI [2] | EPO expression in ng/mL @ 0.3 mg/kg (hEPO) [ng/mL] | Size (nm) [3] [nm] | EE % [3] [%] | Invivo lipid degradability ng/g of Liver tissue @ 0.3 mg/kg dose [4] | pKa ([1]; Table 3, formulation not indicated) | FVII KD % @ 0.03 mg/kg (factor VII) [%]
1 | CN(C)CCCC(=O)OC(CCCC(=O)OC(COC(=O)CCCC1CCCCC1)COC(=O)CCCC1CCCCC1)CCCC(=O)OC(COC(=O)CCCC1CCCCC1)COC(=O)CCCC1CCCCC1 | 6.49 | 0.081 | 19337.84 | 70.09 | 93.4 | BLOQ |  | 
2 | CCn1cc(CCC(C)C(=O)OCC(COC(=O)C(C)CCc2cn(CC)c3ccccc23)OC(=O)CCCN(CCCC(=O)OC(COC(=O)C(C)CCc2cn(CC)c3ccccc23)COC(=O)C(C)CCc2cn(CC)c3ccccc23)C(=O)SCCCN(C)C)c2ccccc21 (stereo not shown) [Lipid 43, ((4,4′-((((3-(dimethylamino)propyl)thio)carbonyl)azanediyl)bis(butanoyl))bis(oxy))bis(propane-2,1,3-triyl)tetrakis(4-(1-ethyl-1H-indol-3-yl)-2-methylbutanoate)] |  | 0.05 | 14.3 | 92.35 | 90 | 1970 ± 379 ng/g | 6.33 | 15.24
3 | CC1CCC(CCC(=O)OCC(C)(COC(=O)CCC2CCC(C)CC2)COC(=O)CCN(CCC(=O)OCC(C)(COC(=O)CCC2CCC(C)CC2)COC(=O)CCC2CCC(C)CC2)C(=O)OCCCN(C)C)CC1 (stereo not shown) [Lipid 46] | 7.08 | 0.114 | 958.2 | 81.62 | 91.5 |  |  | 82.9
4 | CC1CCC(CCC(=O)OCC(C)(COC(=O)CCC2CCC(C)CC2)COC(=O)CCN(CCCCCN(C)C)CCC(=O)OCC(C)(COC(=O)CCC2CCC(C)CC2)COC(=O)CCC2CCC(C)CC2)CC1 (stereo not shown) [Lipid 50, (((3,3′-((5-(dimethylamino)pentyl)azanedivl)bis(propanovl))bis(oxy))bis(methylene))bis(2-methylpropane-2,1,3-triyl)tetrakis(3-(4-methylcyclohexyl) propanoate)] | 7.04 | 0.13 | 579.2 | 97.08 | 94.7 | 28100 ng/g |  | 93.5
5 | CC1CCC(CCC(=O)OCC(C)(COC(=O)CCC2CCC(C)CC2)COC(=O)CCC(CCC(=O)OCC(C)(COC(=O)CCC2CCC(C)CC2)COC(=O)CCC2CCC(C)CC2)OC(=O)CCCN(C)C)CC1 (stereo not shown) [Lipid 51, Bis(2-methyl-3-((3-(4-methylcyclohexyl)propanoyl)oxy)-2-(((3-(4-methylcyclohexyl)propanoyl)oxy)methyl)propyl) 4-((4-(dimethylamino)butanoyl)oxy)heptanedioate] | 6.53 | 0.059 | 868.5 | 65.71 | 90.4 | 36000 ng/g |  | 65.23
6 | CN(C)CCCSC(=O)N(CCCC(=O)OCC(COC(=O)CCC1CCCCC1)COC(=O)CCC1CCCCC1)CCCC(=O)OCC(COC(=O)CCC1CCCCC1)COC(=O)CCC1CCCCC1 [Lipid 52] | 7.2 | 0.038 | 17888.62 | 77.62 | 90.8 | BLOQ |  | 69.66
7 | CN(C)CCCSC(=O)N(CCCC(=O)OCC(C)(COC(=O)CCC1CCCCC1)COC(=O)CCC1CCCCC1)CCCC(=O)OCC(C)(COC(=O)CCC1CCCCC1)COC(=O)CCC1CCCCC1 [Lipid 53, ((4,4′-((((3-(Dimethylamino)propyl)thio)carbonyl)azanediyl)bis(butanoyl))bis(oxy))bis(methylene))bis(2-methylpropane-2,1,3-triyl)tetrakis(3 cyclohexylpropanoate)] | 6.93 | 0.076 | 15844.04 | 85.94 | 93.1 | 14200 ng/g |  | 85.45
8 | CCCCCCCC(=O)OCC(C)(COC(=O)CCCCCCC)COC(=O)CCCN(CCCC(=O)OCC(C)(COC(=O)CCCCCCC)COC(=O)CCCCCCC)C(=O)SCCCN(C)C [Lipid 54] | 7.3 | 0.072 | 25548.45 | 76.03 | 90.9 | BLOQ |  | 86.88
9 | CCCCCCC(C)(C)C(=O)OCC(COC(=O)CCCN(CCCC(=O)OCC(COC(=O)C(C)(C)CCCCCC)COC(=O)C(C)(C)CCCCCC)C(=O)SCCCN(C)C)COC(=O)C(C)(C)CCCCCC [Lipid 55] | 6.59 | 0.103 | 10312.89 | 71.78 | 93.0 | 63300 ng/g |  | 72.17
10 | CN(C)CCCC(=O)OC(CCCC(=O)OC(COC(=O)CCC1CCCCC1)COC(=O)CCC1CCCCC1)CCCC(=O)OC(COC(=O)CCC1CCCCC1)COC(=O)CCC1CCCCC1 [Lipid 57, bis(1,3-bis((3-cyclohexylpropanoyl)oxy)propan-2-yl) 5-((4-(dimethylamino)butanoyl)oxy)nonanedioate] | 6.52 | 0.065 | 21737.69 | 78.98 | 94.3 | BLOQ |  | 
11 | CN(C)CCCC(=O)OC(CCCCCC(=O)OC(COC(=O)CCC1CCCCC1)COC(=O)CCC1CCCCC1)CCCCCC(=O)OC(COC(=O)CCC1CCCCC1)COC(=O)CCC1CCCCC1 [Lipid 59, bis(1,3-bis((3-cyclohexylpropanoyl)oxy)propan-2-yl) 7-((4-(dimethylamino)butanoyl)oxy)tridecanedioate] | 6.37 | 0.068 | 14723.72 | 74.77 | 92.1 | BLOQ |  | 
12 | CCCCC(C)(C)CC(=O)OCC(C)(COC(=O)CCC(CCC(=O)OCC(C)(COC(=O)CC(C)(C)CCCC)COC(=O)CC(C)(C)CCCC)OC(=O)CCCN(C)C)COC(=O)CC(C)(C)CCCC [Lipid 60, bis(3-((3,3-dimethylheptanol)oxy)-2-(((3,3-dimethylheptanol)oxy)methyl)-2-methylpropyl) 4-((4-(dimethylamino)butanoyl)oxy)heptanedioate] | 6.28 | 0.087 | 1631.03 | 65.95 | 93.9 | 53300 ng/g |  | 
13 | CN(C)CCCC(=O)OC(CCCC(=O)OCC(COC(=O)CCC1CCCCC1)COC(=O)CCC1CCCCC1)CCCC(=O)OCC(COC(=O)CCC1CCCCC1)COC(=O)CCC1CCCCC1 [Lipid 61, bis(3-((3-cyclohexylpropanoyl)oxy)-2-(((3-cyclohexylpropanoyl)oxy)methyl)propyl)5-((4-(dimethylamino)butanoyl)oxy)nonanedioate] | 6.84 | 0.064 | 4238.52 | 70.54 | 95.3 | BLOQ |  | 
14 | CN(C)CCCC(=O)OC(CCCC(=O)OCC(C)(COC(=O)CCC1CCCCC1)COC(=O)CCC1CCCCC1)CCCC(=O)OCC(C)(COC(=O)CCC1CCCCC1)COC(=O)CCC1CCCCC1 [Lipid 62, bis(3-((3-cyclohexylpropanoyl)oxy)-2-(((3-cyclohexylpropanoyl)oxy)methyl)-2-methylpropyl) 5-((4-(dimethylamino)butanoyl)oxy)nonanedioate] | 6.64 | 0.056 | 2930.66 | 72.43 | 95.3 | 6880 ng/g |  | 
